Assay results reported in ChEMBL document CHEMBL1201862, “PubChem BioAssay data set” (2004).
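These data come from cells grown in 96-well plates and exposed to compound for 48 hours at five concentrations. The concentration for 50% growth inhibition is given as GI50.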 Activity calls are given as the source filed them. Cut-off read from the data, not from the text of the source: active = GI50 up to about 1.1 µM and inactive = higher.

Columns and labels:
Experiment in all cases: growth of human tumour cells (NCI), 48 h
[1] = test system: 786-0
[2] = test system: A498
[3] = test system: COLO 205
[4] = test system: HT-29
[5] = test system: IGROV-1
[6] = test system: K562
[7] = test system: LOX IMVI
[8] = test system: NCI-H460
[9] = test system: OVCAR-8
[10] = test system: SF-268
[11] = test system: SF-295
[12] = test system: SN12C
[13] = test system: UACC-257
[14] = test system: UACC-62
[15] = test system: HL-60
[16] = test system: MCF7
[17] = test system: MDA-MB-435
[18] = test system: PC-3

Measured: GI50

CCc1cccc(C(C)CC)c1NC(=O)CC1C(=O)Nc2ccccc2S1(=O)=O (centres undefined)
inactive: [1] 15.4 µM | [2] 33.6 µM | [3] 20.9 µM | [4] 15.2 µM | [5] 20.6 µM | [6] 4.95 µM | [7] 6.49 µM | [8] 23.9 µM | [9] 4.22 µM | [10] 25.8 µM | [11] 25.1 µM | [12] 18.4 µM | [13] 42.3 µM | [14] 22.3 µM

O=C(c1ccncc1)n1nc(-c2ccccc2)c(/N=N/c2ccc([N+](=O)[O-])cc2)c1-c1ccccc1
inactive: [1] > 100 µM | [2] > 100 µM | [3] 79.8 µM | [15] 89.3 µM | [4] 38.7 µM | [5] > 100 µM | [6] 54.7 µM | [9] 91.2 µM | [10] 49.5 µM | [11] 44.7 µM | [12] > 100 µM | [13] 92.3 µM | [14] 90.8 µM

O=C1CCC(Cl)=CC2CCCN12 (centres undefined)
inactive: [1] > 100 µM | [2] > 100 µM | [3] > 100 µM | [15] > 100 µM | [4] > 100 µM | [5] > 100 µM | [6] > 100 µM | [7] > 100 µM | [8] > 100 µM | [9] > 100 µM | [12] > 100 µM | [13] > 100 µM | [14] > 100 µM

COc1ccc(-c2c(C3=NCCCN3)nnn2-c2ccccc2)cc1
inactive: [1] > 100 µM | [2] > 100 µM | [3] > 100 µM | [15] > 100 µM | [4] > 100 µM | [5] > 100 µM | [6] > 100 µM | [7] > 100 µM | [8] > 100 µM | [9] > 100 µM | [10] > 100 µM | [11] > 100 µM | [12] > 100 µM | [13] > 100 µM | [14] > 100 µM

CC1NOC(NS(=O)(=O)c2ccc(/N=N/c3c(O)c(C(=O)O)cc4ccccc34)cc2)C1C (centres undefined)
inactive: [1] > 100 µM | [3] > 100 µM | [15] > 100 µM | [4] > 100 µM | [5] > 100 µM | [6] > 100 µM | [16] > 100 µM | [17] > 100 µM | [8] > 100 µM | [9] > 100 µM | [18] > 100 µM | [10] > 100 µM | [11] > 100 µM | [13] > 100 µM | [14] > 100 µM

C[Si](C)(C)/C=C/CN1C(=O)CCC1O (centres undefined)
inactive: [1] > 100 µM | [2] > 100 µM | [3] > 100 µM | [15] > 100 µM | [4] > 100 µM | [5] > 100 µM | [6] > 100 µM | [7] > 100 µM | [8] > 100 µM | [9] > 100 µM | [10] > 100 µM | [11] > 100 µM | [12] > 100 µM | [13] > 100 µM | [14] > 100 µM

Nn1c(S)nnc1N/N=C1/C(=O)Nc2c(Cl)cc(Cl)cc21
inactive: [1] 97.3 µM | [2] 65.5 µM | [3] > 100 µM | [15] 69.2 µM | [4] > 100 µM | [5] 92.9 µM | [6] 31.2 µM | [7] 48.5 µM | [8] > 100 µM | [9] > 100 µM | [10] > 100 µM | [11] > 100 µM | [12] 94.8 µM | [13] > 100 µM | [14] > 100 µM

Nc1ccc2nc(Nc3ccc(Cl)c(Cl)c3)cnc2c1
inactive: [1] 15.5 µM | [3] 19.4 µM | [15] 8.47 µM | [4] 16.2 µM | [6] 19 µM | [7] 14.7 µM | [8] 17.6 µM | [9] 26.2 µM | [10] 13.9 µM | [11] > 10 µM | [12] 14.9 µM | [13] 25.8 µM

CC(=O)O/N=C(Cl)/C(Cl)=N/OC(C)=O
inactive: [1] > 100 µM | [2] > 100 µM | [15] > 100 µM | [4] > 100 µM | [5] > 100 µM | [6] > 100 µM | [7] > 100 µM | [8] > 100 µM | [9] > 100 µM | [10] > 100 µM | [11] > 100 µM | [12] > 100 µM | [13] > 100 µM | [14] > 100 µM

C=CCNC(=S)OCCCCCCCCCC
inactive: [1] 18.2 µM | [2] 18.5 µM | [15] 16.4 µM | [4] 18.6 µM | [5] 20 µM | [6] 13.8 µM | [7] 13.6 µM | [8] 17.6 µM | [9] 17.1 µM | [10] 19.5 µM | [11] 19.1 µM | [12] 17.7 µM | [13] 18.8 µM | [14] 16.5 µM

CC(=O)OCC1OC(N=[N+]=[N-])C(OC(C)=O)C(OC(C)=O)C1OC1OC(COC(C)=O)C(OC(C)=O)C(OC(C)=O)C1OC(C)=O (centres undefined)
inactive: [1] > 100 µM | [2] > 100 µM | [3] > 100 µM | [15] > 100 µM | [4] > 100 µM | [5] > 100 µM | [6] > 100 µM | [7] > 100 µM | [8] > 100 µM | [9] > 100 µM | [10] > 100 µM | [11] > 100 µM | [12] > 100 µM | [13] > 100 µM | [14] > 100 µM

CN1CCc2c1nc(-c1ccccc1)c1c2N(C)CC1
inactive: [1] 66.8 µM | [2] 26.1 µM | [3] 34.7 µM | [15] 31 µM | [4] 31.1 µM | [5] > 100 µM | [6] 25.4 µM | [7] 49 µM | [8] 71.1 µM | [9] 57.4 µM | [10] > 100 µM | [11] 30.1 µM | [12] 62.7 µM | [13] 93.5 µM | [14] > 100 µM

FC(F)(F)c1cccc2ns[s+]c12
inactive: [1] > 100 µM | [2] > 100 µM | [3] > 100 µM | [15] > 100 µM | [4] > 100 µM | [5] > 100 µM | [6] > 100 µM | [7] > 100 µM | [8] > 100 µM | [9] > 100 µM | [10] > 100 µM | [11] > 100 µM | [12] > 100 µM | [13] > 100 µM | [14] > 100 µM

CCCCCCCCCCCCCCCCCCCCCCC(=O)N[C@H]1CCc2cc(OC)c(OC)c(OC)c2-c2ccc(SC)c(=O)cc21
inactive: [1] 40.2 µM | [2] 11.5 µM | [3] 12.8 µM | [15] 17.1 µM | [4] 30.6 µM | [5] 49.1 µM | [6] 30.5 µM | [8] 28.4 µM | [9] 26.5 µM | [10] 59.7 µM | [11] 34.6 µM | [12] 28.2 µM | [13] 39.2 µM | [14] 40 µM
